Test results from the Deep4Chem optical property database.
Several values for one entry are separate records, joined by “and”; a condition that tells them apart may be missing. Identical values can stand only once.

Test: solvent given as SMILES

C[N+]1=C(/C=C/C=C2/N(CCC[N+](C)(C)C)c3ccc(Br)cc3C2(C)C)C(C)(C)c2ccccc21
emission maximum (in CS(C)=O): 568 nm

CC(C)(C)c1ccc2ccc3c(C(C)(C)C)ccc4ccc1c2c43
emission maximum (in CCCCCC): 379 nm
emission maximum (in CO): 379 nm
emission maximum (in ClCCl): 380 nm

c1ccc(N(c2ccccc2)c2ccc(-c3ncc(-c4ccncc4)s3)cc2)cc1
emission maximum (in CO): 534 nm

CC1=CC(C)=[N+]2C1=C(c1ccc(N(C)C)cc1)c1c(C)cc(C)n1[B-]2(F)F
emission maximum (in C1CCOC1): 513 nm
emission maximum (in CC#N): 508 nm
emission maximum (in CC(=O)C(C)(C)C): 511 nm
emission maximum (in CC(C)=O): 510 nm
emission maximum (in CCCCCC): 511 nm
emission maximum (in CCOC(C)=O): 510 nm
emission maximum (in CO): 514 nm and 511 nm

c1cc2ccc1CCCc1cc3c(cc1CCCc1ccc(c4nsnc14)CCC3)CCC2
emission maximum (in C1CCCCC1): 496 nm
emission maximum (in CC#N): 534 nm
emission maximum (in ClC(Cl)Cl): 531 nm

CC(C)[Si](C#Cc1ccc(C#C[Si](C(C)C)(C(C)C)C(C)C)c2nc3c(ccc4ccccc43)nc12)(C(C)C)C(C)C
emission maximum (in CCCCCC): 444 nm

CCCCCCCCOc1ccc(-c2c3c4n(c(-c5ccc(OCCCCCCCC)cc5)c3c3n2[B-](F)(F)[n+]2c(ccc5ccccc52)N=3)[B-](F)(F)[n+]2c(ccc3ccccc32)N=4)cc1
emission maximum (in ClC(Cl)Cl): 682 nm

N#Cc1ccc(N(c2ccc(C#N)cc2)c2ccc3c4cccc5c(N(c6ccc(C#N)cc6)c6ccc(C#N)cc6)ccc(c6cccc2c63)c54)cc1
emission maximum (in C1CCCCC1): 494 nm
emission maximum (in C1CCOC1): 531 nm
emission maximum (in CC#N): 535 nm
emission maximum (in Cc1ccccc1): 513 nm
emission maximum (in ClCCl): 522 nm

CCCCn1c(-c2ccc(-c3ccc(-c4ccc(-c5n(CCCC)c6cc(C)ccc6[n+]5CCCC)cc4)cc3)cc2)[n+](CCCC)c2ccc(C)cc21
emission maximum (in O): 397 nm

COc1ccc(-c2cc(-c3ccc(N(C)C)cc3)nc(-c3ccccc3)n2)cc1
emission maximum (in ClC(Cl)Cl): 453 nm

N#Cc1c(N2CCCC2)cc(-c2ccccc2)c2c1-c1ccccc1C2=O
emission maximum (in C1CCOC1): 527 nm

C1=C(c2ccccc2)C(c2ccccc2)C(c2ccccc2)=C1
emission maximum (in C1CCOC1): 385 nm

CCCC1(CCC)c2cc(C#N)ccc2-c2ccc(C#N)cc21
emission maximum (in C1CCCCC1): 324 nm

COc1cc(-c2nc3sc4ccccc4c3s2)cc(OC)c1OC
emission maximum (in CS(C)=O): 424 nm

N#Cc1cccc(-c2cccc(-c3nc(-c4cccc(-c5cccc(C#N)c5)c4)nc(-c4cccc(-c5cccc(C#N)c5)c4)n3)c2)c1
emission maximum (in ClCCl): 420 nm

CC1(C)C(/C=C2\C(=O)C(/C=C3\Nc4ccccc4C3(C)C)=C2[O-])=[NH+]c2ccccc21
emission maximum (in ClC(Cl)Cl): 670 nm

COC(=O)c1cc(=O)n(C)c2cc(-c3ccc(N4CCN(C)CC4)cc3)sc12
emission maximum (in CC#N): 587 nm
emission maximum (in ClCCl): 550 nm

C(=C\c1c2ccccc2cc2ccccc12)/c1c2ccccc2cc2ccccc12
emission maximum (in C1CCOC1): 650 nm

CC(C)(C)c1ccc2c(c1)c1cc(C(C)(C)C)ccc1n2-c1ccc2c(c1)C(=O)c1ccc(-n3c4ccc(C(C)(C)C)cc4c4cc(C(C)(C)C)ccc43)cc1C2=O
emission maximum (in Cc1ccccc1): 602 nm
emission maximum (in c1ccc2c(c1)c1ccccc1n2-c1ccc(-c2ccc(-n3c4ccccc4c4ccccc43)cc2)cc1): 575 nm

CCC1=C(C)C2=C(/C=C/c3ccc([N+](=O)[O-])cc3)c3c(C)c(CC)c(C)n3[B-](F)(F)[N+]2=C1C
emission maximum (in ClCCl): 532 nm

CC(C)(C)c1ccc2oc3nc4oc5cc(-n6c7ccccc7c7ccccc76)ccc5c4cc3c2c1
emission maximum (in ClC(Cl)Cl): 396 nm

CC1=N/C(=C\c2ccncc2)C(=O)N1C
emission maximum (in C1COCCO1): 439 nm
emission maximum (in CC#N): 452 nm
emission maximum (in CCO): 453 nm
emission maximum (in CCOC(C)=O): 442 nm
emission maximum (in O): 464 nm

c1ccc(N(c2ccccc2)c2ccc(-c3ccncn3)cc2)cc1
emission maximum (in ClCCl): 482 nm

CCCCCCCCCCCCCCCCN(CCCCCCCCCCCCCCCC)c1ccc(/C=C/c2cc[n+](Cc3cc(C[n+]4ccc(/C=C/c5ccc(N(CCCCCCCCCCCCCCCC)CCCCCCCCCCCCCCCC)cc5)cc4)cc(C[n+]4ccc(/C=C/c5ccc(N(CCCCCCCCCCCCCCCC)CCCCCCCCCCCCCCCC)cc5)cc4)c3)cc2)cc1
emission maximum (in C1COCCO1): 578 nm
emission maximum (in CC(C)O): 613 nm
emission maximum (in CCCCCC): 630 nm
emission maximum (in CCCCCCCCO): 589 nm
emission maximum (in CCCCO): 612 nm
emission maximum (in CCCO): 617 nm
emission maximum (in CCO): 621 nm
emission maximum (in CO): 624 nm
emission maximum (in CS(C)=O): 615 nm
emission maximum (in Cc1ccc(C)cc1): 556 nm
emission maximum (in Cc1ccccc1): 559 nm
emission maximum (in ClC(Cl)Cl): 587 nm
emission maximum (in ClCCl): 606 nm
emission maximum (in c1ccccc1): 562 nm

CN(C)c1ccc(/C=C/C=C/c2ccc([N+](=O)[O-])c(O)c2)cc1
emission maximum (in C1CCCCC1): 530 nm
emission maximum (in C1CCOC1): 686 nm
emission maximum (in C1COCCO1): 634 nm
emission maximum (in CCCCCCC): 523 nm
emission maximum (in Cc1ccccc1): 609 nm

C1=C(c2ccccc2)C2=Nc3c(-c4ccccc4)cc4n3[B-]3(Oc5ccccc5C1=[N+]23)Oc1ccccc1-4 (stereo not given)
emission maximum (in Cc1ccccc1): 746 nm

COc1ccc(-c2nc(-c3ccc(OC)cc3C)nc(-c3ccc(N4c5ccccc5C5(c6ccccc6-c6ccccc65)c5ccccc54)cc3C)n2)c(C)c1
emission maximum (in Cc1ccccc1): 467 nm
emission maximum (in O=P(c1ccccc1)(c1ccccc1)c1ccccc1Oc1ccccc1P(=O)(c1ccccc1)c1ccccc1): 469 nm
